Results as given in ChEMBL document CHEMBL4190275, “Quinoliniumolate and 2H-1,2,3-Triazole Derivatives from the Stems of Paramignya trimera and Their α-Glucosidase Inhibitory Activities: In Vitro and in Silico Studies” (J Nat Prod, 2017).

Assay: Inhibition of Saccharomyces cerevisiae alpha-glucosidase using p-nitrophenyl-alpha-D-glucopyranoside as substrate measured after 30 mins

Compound: CCCC[C@@H](CC)COC(=O)c1cn[nH]n1
- IC50: 138 µM

Compound: C/C=C/c1cc(=O)c2ccccc2n1C
- IC50: > 250 µM
